According to PubChem BioAssay (NCI):
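Method: 48-hour compound exposure of cells in 96-well plates, five concentrations, linear interpolation of endpoints. TGI is the concentration that stops growth completely.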

What was measured:
Experiment in all cases: NCI-60 cell line screen, 48 h
NCI-H226 lung = tested on: NCI-H226 lung
HCT-116 colon = tested on: HCT-116 colon
KM20L2 colon = tested on: KM20L2 colon
M19-MEL melanoma = tested on: M19-MEL melanoma
EKVX NSCLC = tested on: EKVX NSCLC
RPMI-8226 leukemia = tested on: RPMI-8226 leukemia
CAKI-1 renal = tested on: CAKI-1 renal
SF-295 CNS = tested on: SF-295 CNS
A549 NSCLC = tested on: A549 NSCLC
U251 CNS = tested on: U251 CNS
SNB-19 CNS = tested on: SNB-19 CNS
UACC-257 melanoma = tested on: UACC-257 melanoma
NCI-H460 lung = tested on: NCI-H460 lung
A498 renal = tested on: A498 renal
HT29 colon = tested on: HT29 colon
SK-OV-3 ovarian = tested on: SK-OV-3 ovarian
DLD-1 colon = tested on: DLD-1 colon
RXF 393 renal = tested on: RXF 393 renal
OVCAR-3 ovarian = tested on: OVCAR-3 ovarian
SN12C renal = tested on: SN12C renal
SNB-78 CNS = tested on: SNB-78 CNS
SF-268 CNS = tested on: SF-268 CNS
HOP-18 NSCLC = tested on: HOP-18 NSCLC
SK-MEL-2 melanoma = tested on: SK-MEL-2 melanoma
HOP-92 NSCLC = tested on: HOP-92 NSCLC
DMS 273 small cell lung = tested on: DMS 273 small cell lung
HCC-2998 colon = tested on: HCC-2998 colon
ACHN renal = tested on: ACHN renal
IGROV1 ovarian = tested on: IGROV1 ovarian
786-0 renal = tested on: 786-0 renal
UO-31 renal = tested on: UO-31 renal
SK-MEL-28 melanoma = tested on: SK-MEL-28 melanoma
HOP-62 NSCLC = tested on: HOP-62 NSCLC
M14 melanoma = tested on: M14 melanoma
KM12 colon = tested on: KM12 colon
SF-539 CNS = tested on: SF-539 CNS
NCI-H522 lung = tested on: NCI-H522 lung
OVCAR-4 ovarian = tested on: OVCAR-4 ovarian
SW-620 colon = tested on: SW-620 colon
SNB-75 CNS = tested on: SNB-75 CNS
NCI-H23 lung = tested on: NCI-H23 lung
MALME-3M melanoma = tested on: MALME-3M melanoma
RXF-631 renal = tested on: RXF-631 renal
OVCAR-5 ovarian = tested on: OVCAR-5 ovarian
UACC-62 melanoma = tested on: UACC-62 melanoma
SR leukemia = tested on: SR leukemia
DMS 114 small cell lung = tested on: DMS 114 small cell lung
LXFL 529 NSCLC = tested on: LXFL 529 NSCLC
HL-60(TB) leukemia = tested on: HL-60(TB) leukemia
COLO 205 colon = tested on: COLO 205 colon
HCT-15 colon = tested on: HCT-15 colon
CCRF-CEM leukemia = tested on: CCRF-CEM leukemia
XF 498 CNS = tested on: XF 498 CNS
MOLT-4 leukemia = tested on: MOLT-4 leukemia
SK-MEL-5 melanoma = tested on: SK-MEL-5 melanoma
OVCAR-8 ovarian = tested on: OVCAR-8 ovarian
K-562 leukemia = tested on: K-562 leukemia

Measured: TGI

CCOc1ccccc1NC(=O)C1=C(C)NC(C)=C(C(=O)Nc2ccccc2OCC)C1c1ccc([N+](=O)[O-])cc1
> 100 µM: NCI-H226 lung | HCT-116 colon | KM20L2 colon | M19-MEL melanoma | EKVX NSCLC | RPMI-8226 leukemia | CAKI-1 renal | SF-295 CNS | A549 NSCLC | U251 CNS | SNB-19 CNS | UACC-257 melanoma | NCI-H460 lung | A498 renal | HT29 colon | SK-OV-3 ovarian | DLD-1 colon | RXF 393 renal | OVCAR-3 ovarian | SN12C renal | SNB-78 CNS | SF-268 CNS | HOP-18 NSCLC | SK-MEL-2 melanoma | HOP-92 NSCLC | DMS 273 small cell lung | HCC-2998 colon | ACHN renal | IGROV1 ovarian | 786-0 renal | UO-31 renal | SK-MEL-28 melanoma | HOP-62 NSCLC | M14 melanoma | KM12 colon | SF-539 CNS | NCI-H522 lung | OVCAR-4 ovarian | SW-620 colon | SNB-75 CNS | NCI-H23 lung | MALME-3M melanoma | RXF-631 renal | OVCAR-5 ovarian | UACC-62 melanoma | SR leukemia | DMS 114 small cell lung | LXFL 529 NSCLC | HL-60(TB) leukemia | COLO 205 colon | HCT-15 colon

NNC(=O)N/N=C1\CN(c2ccc(Cl)cc2Cl)C(=O)C(=O)C1c1nc2ccccc2o1 (stereo not drawn)
> 100 µM: NCI-H226 lung | HCT-116 colon | KM20L2 colon | CCRF-CEM leukemia | XF 498 CNS | M19-MEL melanoma | EKVX NSCLC | RPMI-8226 leukemia | CAKI-1 renal | A549 NSCLC | U251 CNS | SNB-19 CNS | UACC-257 melanoma | NCI-H460 lung | A498 renal | HT29 colon | SK-OV-3 ovarian | DLD-1 colon | OVCAR-3 ovarian | SN12C renal | SNB-78 CNS | SF-268 CNS | SK-MEL-2 melanoma | HOP-92 NSCLC | DMS 273 small cell lung | HCC-2998 colon | ACHN renal | IGROV1 ovarian | MOLT-4 leukemia | 786-0 renal | UO-31 renal | SK-MEL-28 melanoma | HOP-62 NSCLC | M14 melanoma | KM12 colon | SF-539 CNS | NCI-H522 lung | OVCAR-4 ovarian | SW-620 colon | SNB-75 CNS | NCI-H23 lung | MALME-3M melanoma | RXF-631 renal | SK-MEL-5 melanoma | OVCAR-5 ovarian | UACC-62 melanoma | SR leukemia | OVCAR-8 ovarian | DMS 114 small cell lung | LXFL 529 NSCLC | K-562 leukemia | COLO 205 colon
